57 molecules from the Kinase Knowledgebase extract (Sharma et al. 2016) can be followed below.

This experiment deals with PIK3CD (Human) (UniProt O00329). The experiment can be described thus: Assessment of PI3KCD Kinase Activity.

Molecules are shown by their SMILES.

Chain of PIK3CD (Human) (O00329 whole entry, looked up): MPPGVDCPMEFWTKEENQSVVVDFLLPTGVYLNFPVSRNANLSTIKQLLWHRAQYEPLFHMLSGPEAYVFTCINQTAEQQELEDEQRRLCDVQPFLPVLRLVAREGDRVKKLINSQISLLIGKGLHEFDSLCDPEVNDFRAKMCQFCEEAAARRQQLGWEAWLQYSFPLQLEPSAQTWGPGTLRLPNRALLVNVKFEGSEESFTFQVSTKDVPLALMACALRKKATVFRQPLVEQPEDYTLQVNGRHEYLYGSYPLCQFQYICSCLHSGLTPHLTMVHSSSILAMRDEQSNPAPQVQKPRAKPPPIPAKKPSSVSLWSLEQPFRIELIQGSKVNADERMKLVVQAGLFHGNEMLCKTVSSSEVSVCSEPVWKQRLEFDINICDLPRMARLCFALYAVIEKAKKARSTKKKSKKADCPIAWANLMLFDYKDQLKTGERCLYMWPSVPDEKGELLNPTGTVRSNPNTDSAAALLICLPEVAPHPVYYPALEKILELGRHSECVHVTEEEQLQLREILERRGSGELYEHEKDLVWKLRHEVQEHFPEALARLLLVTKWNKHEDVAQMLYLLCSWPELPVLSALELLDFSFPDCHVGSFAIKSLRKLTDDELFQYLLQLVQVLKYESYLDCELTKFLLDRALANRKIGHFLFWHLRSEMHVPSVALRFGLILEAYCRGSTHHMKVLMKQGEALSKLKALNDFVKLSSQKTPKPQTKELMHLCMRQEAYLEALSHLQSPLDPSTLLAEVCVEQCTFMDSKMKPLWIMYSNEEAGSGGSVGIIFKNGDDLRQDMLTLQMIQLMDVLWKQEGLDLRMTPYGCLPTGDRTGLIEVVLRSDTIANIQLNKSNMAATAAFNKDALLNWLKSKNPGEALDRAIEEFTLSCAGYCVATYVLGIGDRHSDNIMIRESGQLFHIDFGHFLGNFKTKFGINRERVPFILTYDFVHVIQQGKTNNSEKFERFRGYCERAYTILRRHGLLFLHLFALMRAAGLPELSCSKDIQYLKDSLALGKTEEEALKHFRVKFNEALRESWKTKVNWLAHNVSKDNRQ

With `Cc1cccc2cc(Cn3nc(C#N)c4c(N)ncnc43)n(-c3ccccc3F)c(=O)c12`, the IC50 is < 100 nM.
Consider `Cc1cccc2cc(Cn3nc(I)c4c(N)ncnc43)n(-c3ccccc3Cl)c(=O)c12`, for which the IC50 was < 100 nM.
With `CC(C)n1c(Cn2nc(-c3cccc(O)c3)c3c(N)ncnc32)cc2ccccc2c1=O`, the IC50 is < 100 nM.
Consider `Cc1ccccc1-n1c(Cn2nc(-c3cc(O)cc(F)c3)c3c(N)ncnc32)nc2scc(C(F)(F)F)c2c1=O`, for which the IC50 is < 100 nM.
On to `COc1ccccc1-n1c(Cn2nc(I)c3c(N)ncnc32)cc2cccc(C)c2c1=O`, for which the half-maximal inhibitory concentration (IC50) is < 100 nM.
For the molecule `Cc1cccc2cc(Cn3nc(-c4cccc(O)c4)c4c(N)ncnc43)n(C3CCCC3)c(=O)c12`, the IC50 is < 100 nM.
To `Cc1cccc2cc(Cn3nc(C#C[C@@H](C)O)c4c(N)ncnc43)n(C3CCCCC3)c(=O)c12` belongs < 100 nM; to `Cc1ccccc1-n1c(Cn2nc(C#CCO)c3c(N)ncnc32)cc2cccc(C)c2c1=O`, < 100 nM.
As to `Cc1cccc2cc(Cn3nc(I)c4c(N)ncnc43)n(C3CCC3)c(=O)c12`, the IC50 was < 100 nM.
On to `Cc1cccc2cc(Cn3nc(I)c4c(N)ncnc43)n(-c3ccccc3F)c(=O)c12`, for which the 50% inhibitory concentration (IC50) was < 100 nM.
For `Cc1ccnc2cc(Cn3nc(-c4cc(O)cc(F)c4)c4c(N)ncnc43)n(-c3ccccc3F)c(=O)c12`, the IC50 was < 100 nM.
Regarding `Nc1ncnc2c1c(I)nn2Cc1cc2cccc(Cl)c2c(=O)n1C1CC1`, the IC50 was < 100 nM.
Regarding `Cc1ccccc1-n1c(Cn2nc(-c3cc(O)cc(F)c3)c3c(N)ncnc32)cc2ncccc2c1=O`, the IC50 was < 100 nM.
In the case of `Cc1cccc2cc(Cn3nc(-c4cn[nH]c4)c4c(N)ncnc43)n(-c3ccccc3Cl)c(=O)c12`, the IC50 is < 100 nM.
Consider `Cc1csc2nc(Cn3nc(C#C[C@@H](C)O)c4c(N)ncnc43)n(-c3ccccc3C(C)C)c(=O)c12`, for which the IC50 was < 100 nM.
Regarding `COc1ccccc1-n1c(Cn2nc(C#C[C@@H](C)O)c3c(N)ncnc32)cc2cccc(C)c2c1=O`, the IC50 was < 100 nM.
As to `Cc1ccccc1-n1c(Cn2nc(C#CCO)c3c(N)ncnc32)nc2scc(C)c2c1=O`, the IC50 is < 100 nM.
Regarding `Cc1ccccc1-n1c(Cn2nc(-c3cc(O)cc(F)c3)c3c(N)ncnc32)nc2c(C)nn(C)c2c1=O`, the IC50 was < 100 nM.
To `Cc1ccccc1-n1c(Cn2nc(C#C[C@H](C)O)c3c(N)ncnc32)nc2scc(C)c2c1=O` belongs < 100 nM.
Under `COc1ccccc1-n1c(Cn2nc(C#C[C@@H](C)O)c3c(N)ncnc32)nc2scc(C)c2c1=O` stands < 100 nM; under `Cc1ccccc1-n1c(Cn2nc(-c3cccc(O)c3)c3c(N)ncnc32)nc2cnn(C)c2c1=O`, < 100 nM; under `Cc1cccnc1-n1c(Cn2nc(-c3cccc(O)c3)c3c(N)ncnc32)nc2scc(C)c2c1=O`, < 100 nM.
`Cc1cccc2cc(Cn3nc(-c4cccc(O)c4)c4c(N)ncnc43)n(C3CCC3)c(=O)c12`: the IC50 is < 100 nM.
Turning to `Cc1cccnc1-n1c(Cn2nc(-c3cc(O)cc(F)c3)c3c(N)ncnc32)cc2ccccc2c1=O`, the IC50 was < 100 nM.
As to `Cc1cccc2cc(Cn3nc(-c4cc(O)cc(F)c4)c4c(N)ncnc43)n(C(C)C)c(=O)c12`, the IC50 was < 100 nM.
Take `Cc1ccccc1-n1c(Cn2nc(-c3cc(O)cc(F)c3)c3c(N)ncnc32)cc2cccc(F)c2c1=O`: the IC50 is < 100 nM.
Consider `Cc1cccc2cc(Cn3nc(-c4cccc(O)c4)c4c(N)ncnc43)n(-c3ccccc3F)c(=O)c12`, for which the IC50 is < 100 nM.
As to `Nc1ncnc2c1c(-c1cc(O)cc(F)c1)nn2Cc1cc2cccc(F)c2c(=O)n1-c1ccccc1F`, the IC50 was < 100 nM.
Under `Cc1csc2nc(Cn3nc(-c4ccc(Cl)c(O)c4)c4c(N)ncnc43)n(-c3ccccc3F)c(=O)c12` stands < 100 nM; under `Cc1ccccc1-n1c(Cn2nc(C#C[C@@H](C)O)c3c(N)ncnc32)nc2scc(C)c2c1=O`, < 100 nM.
`Cc1ccccc1-n1c(Cn2nc(C#N)c3c(N)ncnc32)cc2cccc(C)c2c1=O`: the IC50 was < 100 nM.
For `Cc1cccc2cc(Cn3nc(-c4cn[nH]c4)c4c(N)ncnc43)n(-c3cccc(F)c3)c(=O)c12`, the IC50 was < 100 nM.
To `Cc1ccccc1-n1c(Cn2nc(Cl)c3c(N)ncnc32)cc2cccc(C)c2c1=O` belongs < 100 nM; to `Cc1ccccc1-n1c(Cn2nc(-c3ccc(O)c(F)c3)c3c(N)ncnc32)cc2nccc(C)c2c1=O`, < 100 nM.
As to `Cc1csc2nc(Cn3nc(Br)c4c(N)ncnc43)n(-c3ccccc3Cl)c(=O)c12`, the IC50 was < 100 nM.
To `Cc1ccccc1-n1c(Cn2nc(Br)c3c(N)ncnc32)nc2nccc(C)c2c1=O` belongs < 100 nM; to `Cc1csc2nc(Cn3nc(-c4cccc(O)c4)c4c(N)ncnc43)n(-c3ccccc3Cl)c(=O)c12`, < 100 nM.
Consider `Cc1cccc2cc(Cn3nc(-c4cccc(O)c4)c4c(N)ncnc43)n(-c3ccccc3OCCN3CCOCC3)c(=O)c12`, for which the IC50 was < 100 nM.
On to `CCc1ccccc1-n1c(Cn2nc(C#C[C@@H](C)O)c3c(N)ncnc32)cc2cccc(C)c2c1=O`, for which the IC50 is < 100 nM.
Consider `Cc1csc2nc(Cn3nc(Br)c4c(N)ncnc43)n(-c3ccccc3C(F)(F)F)c(=O)c12`, for which the IC50 is < 100 nM.
Under `Cc1ccccc1-n1c(Cn2nc(Cl)c3c(N)ncnc32)nc2scc(C)c2c1=O` stands < 100 nM.
`Cc1csc2nc(Cn3nc(C#CCO)c4c(N)ncnc43)n(-c3ccccc3F)c(=O)c12`: the IC50 was < 100 nM.
To `Cc1cccc2cc(Cn3nc(C#C[C@@H](C)O)c4c(N)ncnc43)n(-c3ccccc3F)c(=O)c12` belongs < 100 nM.
With `Cc1cccc2cc(Cn3nc(-c4ccc(Cl)c(O)c4)c4c(N)ncnc43)n(C(C)C)c(=O)c12`, the IC50 is < 100 nM.
For the molecule `Cc1cccc2cc(Cn3nc(C#C[C@@H](C)O)c4c(N)ncnc43)n(C(C)C)c(=O)c12`, the IC50 was < 100 nM.
Take `Cc1cccc2cc(Cn3nc(I)c4c(N)ncnc43)n(-c3ccccc3OCCN3CCOCC3)c(=O)c12`: the IC50 was < 100 nM.
Take `Cc1csc2nc(Cn3nc(Cl)c4c(N)ncnc43)n(-c3ccccc3C(F)(F)F)c(=O)c12`: the IC50 was < 100 nM.
To `Cc1csc2nc(Cn3nc(-c4ccc(F)c(O)c4)c4c(N)ncnc43)n(-c3ccccc3F)c(=O)c12` belongs < 100 nM; to `Cc1cccc2cc(Cn3nc(-c4cn[nH]c4)c4c(N)ncnc43)n(-c3ccccc3F)c(=O)c12`, < 100 nM; to `Nc1ncnc2c1c(-c1cccc(O)c1)nn2Cc1cc2cccc(Cl)c2c(=O)n1C1CC1`, < 100 nM.
`Cc1ccccc1-n1c(Cn2nc(I)c3c(N)ncnc32)nc2scc(C)c2c1=O`: the IC50 was < 100 nM.
To `Cc1cccc2cc(Cn3nc(-c4cc(O)cc(F)c4)c4c(N)ncnc43)n(C)c(=O)c12` belongs < 100 nM; to `Cc1ccccc1-n1c(Cn2nc(Br)c3c(N)ncnc32)nc2sc(C)c(C)c2c1=O`, < 100 nM; to `Cc1ccnc2nc(Cn3nc(I)c4c(N)ncnc43)n(-c3ccccc3F)c(=O)c12`, < 100 nM.
For `Cc1ccccc1-n1c(Cn2nc(-c3cc(O)cc(F)c3)c3c(N)ncnc32)nc2snc(C)c2c1=O`, the IC50 is < 100 nM.
As to `Cc1cccc2cc(Cn3nc(-c4cc(O)cc(F)c4)c4c(N)ncnc43)n(C3CCCCC3)c(=O)c12`, the IC50 is < 100 nM.
Under `Cc1cccc2cc(Cn3nc(-c4ccc(F)c(O)c4)c4c(N)ncnc43)n(-c3ccccc3F)c(=O)c12` stands < 100 nM.

As usually defined, the IC50 is the concentration needed to halve the response being measured. Low readings indicate inhibition by little substance, high ones a need for much substance.
